These substances were tested on Laminin 421/521 (assay: Phage display library screening (Example 2), NEB laminin-binding peptides). Details: Laminin 421/521, not 211 and 411; combined unique sequence count, Python/R script analysis.
Design: species or system human
Experimental: Phage display library screens were used to identify peptides that bind to target proteins (including specific laminin trimers) that are expressed in human nerves, as described in Table 3. These screens were also carried out to identify peptides that could bind selectively to nerves versus muscle. Such peptides could therefore be useful for systemic in-vivo labeling of nerves during fluorescence assisted surgery. Specifically, m 13 phage libraries expressing 7 or 12 random amino acid peptides, or a cyclic peptide CX7C, on the N-terminus of the minor coat protein pIII (New England Biolabs; NEB) were processed through multiple rounds of selection for binding to target proteins expressed in nerves, or to excised human nerves, nerve extracts, or muscle, as described further below.
For screening against the specified target proteins in Table 1, including LN211, LN411, LN421, and LN521, the phage library was processed by up to 4 binding and wash cycles. For selection, phage libraries were incubated for up to 24 hours at 4° C. in 96 well plates that had been coated with one of the target proteins. Plates were then washed with PBS and phage were eluted using 0.2M glycine pH 2.0. Phage supernatants where then neutralized with Tris pH 9.0 prior to plating on TGI bacteria and LB agar plates. Colonies were counted to determine titer followed by DNA preparation of pools of phage and NextGen sequencing. After rounds of selection, phage were pooled and amplified for iterative selection. Phage that were bound at each round were sequenced. NextGen sequencing of pools after 2, 3 and 4 rounds of selection was used to isolate candidate sequences that were analyzed further to identify those that specifically bound each unique target protein.
For all NEB sequence datasets, a python script was used to translate, trim, and filter the peptide sequences (see details above). A python script was used to group peptides from different assays according to laminin complex binding (laminin complex 211, 411, 421, or 521) and combine the unique sequence counts for each peptide. An R script was written to merge the peptide sequences from different data files and determine peptides that specifically bind one laminin complex and not the others, or that bind both laminin 421 and 521 but not 211 and 411.

| Substance | Count |
| --- | --- |
| GRTIHSM (Laminin 421/521-binding peptide) | 95 |
| GSGFRNEEHSAH (Laminin 421/521-binding peptide) | 51 |
| GSLDMGNNKQPV (Laminin 421/521-binding peptide) | 62 |
| GSPEKRT (Laminin 421/521-binding peptide) | 30 |
| GSTTHPHFGLPG (Laminin 421/521-binding peptide) | 40 |
| GWIQDTFVLGRS (Laminin 421/521-binding peptide) | 40 |
| GWTSDLSRNVRG (Laminin 421/521-binding peptide) | 28 |
| GYDLSRLWGMAS (Laminin 421/521-binding peptide) | 39 |
| GYRSFIHENWSI (Laminin 421/521-binding peptide) | 68 |
| HASNQRV (Laminin 421/521-binding peptide) | 93 |
| HPAWADFFTMSS (Laminin 421/521-binding peptide) | 29 |
| HQSLAGVPWSRH (Laminin 421/521-binding peptide) | 53 |
| HQSVTGVRSHFH (Laminin 421/521-binding peptide) | 27 |
| HSFLGAR (Laminin 421/521-binding peptide) | 44 |
| HSTYAPG (Laminin 421/521-binding peptide) | 33 |
| HTQIHRL (Laminin 421/521-binding peptide) | 28 |
| IDLSLRS (Laminin 421/521-binding peptide) | 29 |
| IDQSGLQKSGMK (Laminin 421/521-binding peptide) | 29 |
| IPVGERK (Laminin 421/521-binding peptide) | 124 |
| KALGYSLVGGEW (Laminin 421/521-binding peptide) | 134 |
| KASIAYD (Laminin 421/521-binding peptide) | 30 |
| KFADTKLTSLRY (Laminin 421/521-binding peptide) | 28 |
| KISMNRLHANFT (Laminin 421/521-binding peptide) | 110 |
| KPILWNRSLNAL (Laminin 421/521-binding peptide) | 52 |

| Substance | Count |
| --- | --- |
| KQELSDNLASHR (Laminin 421/521-binding peptide) | 50 |
| LARSSIMAANNV (Laminin 421/521-binding peptide) | 42 |
| LDRNADSVRAVL (Laminin 421/521-binding peptide) | 46 |
| LGHQNGGRADMW (Laminin 421/521-binding peptide) | 35 |
| LGPSTQGAGQTR (Laminin 421/521-binding peptide) | 38 |
| LGSSRSPSSFLG (Laminin 421/521-binding peptide) | 29 |
| LGYGQGTPHRSN (Laminin 421/521-binding peptide) | 30 |
| LLAGPFR (Laminin 421/521-binding peptide) | 44 |
| LPMLRHS (Laminin 421/521-binding peptide) | 32 |
| LQSNAADHHQGM (Laminin 421/521-binding peptide) | 75 |
| MTHSAHNSQKTN (Laminin 421/521-binding peptide) | 117 |
| MTNSGAK (Laminin 421/521-binding peptide) | 35 |
| NDTGRHASGISK (Laminin 421/521-binding peptide) | 32 |
| NGHEVQSRAANR (Laminin 421/521-binding peptide) | 29 |
| NHDQGSLTRWRS (Laminin 421/521-binding peptide) | 31 |
| NNNAAMQNHGVR (Laminin 421/521-binding peptide) | 51 |
| NWTHLGVARLQP (Laminin 421/521-binding peptide) | 36 |
| QALRTNYSPLNS (Laminin 421/521-binding peptide) | 32 |
| QGHPFIY (Laminin 421/521-binding peptide) | 40 |
| QGWEFQVPARHS (Laminin 421/521-binding peptide) | 30 |
| QGWFRHS (Laminin 421/521-binding peptide) | 121 |
| QGWKDRLPIWRY (Laminin 421/521-binding peptide) | 29 |
| QINWKQADKNAD (Laminin 421/521-binding peptide) | 33 |
| QLQHVHL (Laminin 421/521-binding peptide) | 28 |

| Substance | Count |
| --- | --- |
| QPTPSQIKFTRT (Laminin 421/521-binding peptide) | 28 |
| QTFGYSMFNVRT (Laminin 421/521-binding peptide) | 30 |
| QTFHEYLNPARG (Laminin 421/521-binding peptide) | 37 |
| QTLQTRH (Laminin 421/521-binding peptide) | 44 |
| QTRWDDGSYQIS (Laminin 421/521-binding peptide) | 49 |
| RALDRYLPWSPH (Laminin 421/521-binding peptide) | 28 |
| RAQAHQV (Laminin 421/521-binding peptide) | 51 |
| RLVTASMVSPSF (Laminin 421/521-binding peptide) | 95 |
| RNLHYPLNHPFM (Laminin 421/521-binding peptide) | 30 |
| SDRGKTVLHGQI (Laminin 421/521-binding peptide) | 54 |
| SFRNLEKLSLWS (Laminin 421/521-binding peptide) | 50 |
| SGWEGKTHQGVR (Laminin 421/521-binding peptide) | 69 |
| SHDVANGTSVRT (Laminin 421/521-binding peptide) | 29 |
| SLAVANTRFMIR (Laminin 421/521-binding peptide) | 49 |
| SLLSVVNTSSKS (Laminin 421/521-binding peptide) | 31 |
| SLNTTWVSPMMK (Laminin 421/521-binding peptide) | 37 |
| SLPYAASLNSVE (Laminin 421/521-binding peptide) | 28 |
| SNPKHVSSLGQM (Laminin 421/521-binding peptide) | 40 |
| SPDRTNWGWQTN (Laminin 421/521-binding peptide) | 29 |
| STNVQRA (Laminin 421/521-binding peptide) | 28 |
| SVESNSKLTMPR (Laminin 421/521-binding peptide) | 29 |
| SVLSTGTANQRH (Laminin 421/521-binding peptide) | 28 |
| SVQTPMWRSLVG (Laminin 421/521-binding peptide) | 28 |
| SVVGWAAPRTAQ (Laminin 421/521-binding peptide) | 27 |

| Substance | Count |
| --- | --- |
| SWHFTGTPFMNR (Laminin 421/521-binding peptide) | 28 |
| SWQMRSY (Laminin 421/521-binding peptide) | 48 |
| SYDGTMLKQVRL (Laminin 421/521-binding peptide) | 36 |
| SYTATWSEMSRS (Laminin 421/521-binding peptide) | 28 |
| TALSHRHEAMRW (Laminin 421/521-binding peptide) | 28 |
| TAPRWTQ (Laminin 421/521-binding peptide) | 30 |
| TFAAAQAELIMV (Laminin 421/521-binding peptide) | 38 |
| TFGSGRSMPIQY (Laminin 421/521-binding peptide) | 34 |
| TILKPAAQGFAD (Laminin 421/521-binding peptide) | 27 |
| TKGIAPK (Laminin 421/521-binding peptide) | 28 |
| TLKAGTRANDGV (Laminin 421/521-binding peptide) | 32 |
| TSAVSLR (Laminin 421/521-binding peptide) | 27 |
| TTLWLDRDEALK (Laminin 421/521-binding peptide) | 27 |
| TTNGVPGHDRSP (Laminin 421/521-binding peptide) | 46 |
| TVARSTAQERSI (Laminin 421/521-binding peptide) | 28 |
| VIADQSKSAVAV (Laminin 421/521-binding peptide) | 27 |
| VPQIRIK (Laminin 421/521-binding peptide) | 47 |
| VPSYILR (Laminin 421/521-binding peptide) | 30 |
| VPVFLDQARVMK (Laminin 421/521-binding peptide) | 53 |
| VVPSWPSVHRPP (Laminin 421/521-binding peptide) | 31 |
| VYRNGGGLPLTA (Laminin 421/521-binding peptide) | 34 |
| WAFKAPQ (Laminin 421/521-binding peptide) | 61 |
| WAYTDYM (Laminin 421/521-binding peptide) | 35 |

— US20240207421A1, “NERVE TARGETING PEPTIDES AND METHODS OF USE” (ALUME BIOSCIENCES, INC., priority 2020, published 2024)
